Measurements from patent US7226941B2, “Compound for treating angiogenesis” (HIF Bio, Inc., priority 2003, dated 2007).

How the values were obtained:
Format in all cases: cell-based, human
HIF-1α = experiment: Immunoblotting of HIF-1α protein in hypoxic Hep3B cells; conditions: hypoxia (1% O2) 18 hours, immunoblot
Description: Hep3B hepatoma cells are cultured in α-modified Eagle's medium supplemented with 10% heat-activated fetal bovine serum, 100 units/ml penicillin, and 100 μg/ml streptomycin in a humidified atmosphere containing 5% CO2 at 37° C. Oxygen tension in the incubator is held at either 140 mm Hg (20% O2, v/v, normoxia) or 7 mm Hg (1% O2, v/v, hypoxia). After 24 hour stabilization under normoxic conditions, cells are incubated under normoxic or hypoxic conditions for 18 hours in the presence or in the absence of compounds of the invention. For the immunoblotting of HIF-1α or HIF-2α in cultured cells, 20 μg of extracted proteins are separated on 6.5% SDS/polyacrylamide gels, and then transferred to an Immobilon-P membrane (Millipore). Immobilized proteins are incubated overnight at 4° C. with rat anti-HIF-1α(Chun et al., J Cell Sci 2001 114:4051-4061) or anti-HIF-2α(Novus Biologicals, Littleton, Colo.), diluted 1:5000 in 5% nonfat milk in TBS/0.1% Tween-20 (TTBS). Horseradish peroxidase-conjugated anti-rat antiserum is used as a secondary antibody and the complexes are visualized using an Enhanced Chemiluminescence Plus Kit (Amersham Pharmacia Biotec).

HIF-2α = experiment: Immunoblotting of HIF-2α protein in hypoxic Hep3B cells; conditions: for inhibition of HIF-2α: hypoxia (1% O2) 18 hours, immunoblot
Description: Hep3B hepatoma cells are cultured in α-modified Eagle's medium supplemented with 10% […] fetal bovine serum, 100 units/ml penicillin, and 100 μg/ml streptomycin in a humidified atmosphere containing 5% CO2 at 37° C. Oxygen tension in the incubator is held at either 140 mm Hg (20% O2, v/v, normoxia) or 7 mm Hg (1% O2, v/v, hypoxia). After 24 hour stabilization under normoxic conditions, cells are incubated under normoxic or hypoxic conditions for 18 hours in the presence or in the absence of compounds of the invention. For the immunoblotting of HIF-1α or HIF-2α in cultured cells, 20 μg of extracted proteins are separated on 6.5% SDS/polyacrylamide gels, and then transferred to an Immobilon-P membrane (Millipore). Immobilized proteins are incubated overnight at 4° C. with rat anti-HIF-1α(Chun et al., J Cell Sci 2001 114:4051-4061) or anti-HIF-2α(Novus Biologicals, Littleton, Colo.), diluted 1:5000 in 5% nonfat milk in TBS/0.1% Tween-20 (TTBS). Horseradish peroxidase-conjugated anti-rat antiserum is used as a secondary antibody and the complexes are visualized using an Enhanced Chemiluminescence Plus Kit (Amersham Pharmacia Biotec).
To induce HIF-1α and HIF-2α proteins, Hep3B cells were incubated in a hypoxic chamber (1% oxygen tension) for 16 hours. […] The amounts of HIF proteins were measured by Western blotting method.

Hep3B hepatoma cells = experiment: Cell cycle analysis by FACS (propidium iodide DNA content)
Description: FIG. 1a is the FACS data to analyze the cell distribution based on DNA content. […] The cell cycle analysis was performed using a Becton Dickinson FACStar flow cytometer. Cells (1-2×10^6) were plated in 10 cm culture dishes at concentrations determined to yield 70-80% confluence within 24 h. Cells were treated with DMSO or YC-1 and incubated for described time. After incubation, both adherent and floating cells were harvested, washed with 3 ml PBS and resuspended with 200 μl PBS, fixed in 75% ethanol for 30 min on ice. After washing with PBS, cells were labeled with propidium iodide (0.05 mg/ml) in the presence of RNase A (0.5 mg/ml), incubated at room temperature in the dark for 30 min. DNA content was then analyzed using FACStar flow cytometer, and then excited with an argon, water-cooled laser emitting at 488 nm. Propidium iodide was detected using a 630±20 nm band pass filter.
The compounds induce cell cycle arrest as shown in Hep3B liver tumor cells. After application of 1 μM into cultures of Hep3B cells, typically in 48 hours, 28% of the cells were in the G0/G1 phases, 15% in the G2/M phases, 57% in the S phase, and a small percentage were characterized as being in the sub-G1 phase. In the control, typically 60% of the cells were in the G0/G1 phases, 16% in the G2/M phases, and […] in the S-phase.

Hep3B cells [1] = experiment: Cell viability by MTT assay; conditions: 0.5, 1, or 2 μM for 24, 48, or 72 h (FIG. 2)
Description: The percentages of viable cells were measured by MTT assay. […] Bars represent the mean of three separate experiments with the upper 95% confidence interval. *: p<0.05 vs. the control.
Compounds of Formula I or II can be evaluated for efficacy using the methods described above. In addition, compounds of the invention have efficacy in a cell viability assay using human cancer cells. The cells are treated with a compound of Formula I or II (at concentrations ranging from 0.5-2 μM) and buffer. Cellular viability is measured at 24, 48, and 72 hours. Treatment with the compound results in a notable decrease in cell viability.
The percentage of viable cells was measured by MTT assay. Cells were plated in 12 well plates. […] Resulting insoluble formazan was dissolved with 0.04 N HCl in isopropanol. Absorbance of purple color of formazan was measured at 570 nm with a spectrophotometer.

PARP = PARP cleavage by immunoblotting; conditions: 1, 2 μM for 90 h, Hep3B (FIG. 3b)
Description: (§1) The activity of caspase-3 was represented in nmoles of p-nitroaniline released per min and per ml of cellular extract. Bars represent the mean of three separate experiments with the upper 95% confidence interval. *: p<0.05 vs. the control. […] PARP cleavage was analysed by immunoblotting with a mouse anti-PARP antibody. Proteins were visualized by Enhanced Chemiluminescence Plus. The lane C is the control. […] PARP is essential for DNA-replication in the S-phase and its absence leads to apoptosis.
(§2) Referring to FIG. 3a, the caspase-3 activity increased over time to about 5 times the activity in the control after 72 h. […] Inactivation of PARP leads to cell apoptosis. PARP protein was analyzed using Western blotting with anti-PARP antibody (BIOMOL Research Laboratories, Inc), diluted 1:5000. […] For quantification of apoptosis at single cell level, based on labeling of DNA strand breaks, Terminal deoxynucleotidyl Transferase-mediated dUTP Nick End Labeling (TUNEL) assay was performed according to the manufacturer's protocol (In Situ Cell Death Detection Kit; TMR Red; Roche Diagnostics GmbH, Mannheim, Germany). It is a method for detecting the 3′—OH ends of DNA exposed during the internucleosomal cleavage that occurs during apoptosis. Incorporation of fluorescein-dUTP allows detection by FACS. […]

Hep3B cells [2] = experiment: TUNEL assay of apoptosis
Description: as §1, §2

HIF = HIF activity assay (EPO enhancer luciferase reporter); conditions: Hep3B, 16 h at 1% O2 (FIGS. 4a-4i)
Description: The synthetic DNA coding the HIF-binding enhancer region of the EPO gene, 5-[…] ATCT-3 (SEQ. ID NO. 1), was inserted into the pGL3 promoter plasmid (Promega). To assay the HIF activity, Hep3B cells were cotransfected with the luciferase reporter gene and the plasmid cytomegalovirus-β-gal, using the calcium phosphate method. Transfected cells were split into nine aliquots and incubated for 42 h. After stabilizing, the cells were incubated for 16 h at 20% or 1% O2. They were then lysed and assayed for luciferase activity using a Biocounter M1500 luminometer (Lumac). β-gal assays were performed for normalization of transfection.

Structure (SMILES) | inhibition of HIF-1α (HIF-1α) | inhibition of HIF-2α (HIF-2α) | percentage of cells in the S-phase over time (FIG. 1) (Hep3B hepatoma cells; Hep3B cells, time after application) | dose dependence of the cell cycle (S-phase) arrest (Hep3B hepatoma cells; Hep3B cultures) | effect on cell cycle (FIG. 1) (Hep3B hepatoma cells; Hep3B hepatoma cells) | cell viability (Hep3B cells [1]) | amount of the 89 kDa fragment of PARP (PARP) | percentage of TUNEL-positive cells (Hep3B cells [2]; 1, 2 μM for 90 h, Hep3B (FIG. 3c)) | percentage of TUNEL-positive cells with caspase-3 inhibitor (Hep3B cells [2]; caspase-3 inhibitor Ac-DEVD-CHO pre-treated 1 h before YC-1) | expression of HIF-2α protein (HIF-2α; 1% oxygen 16 hours, 0.3 to 10 μg/ml, Western blotting (FIGS. 4a-4i)) | HIF activity (luciferase reporter) (HIF)
CC(C)n1nc(-c2ccc(CO)o2)c2ccccc21 [{5-[1-(prop-2-yl)-1H-indazol-3-yl]-furan-2-yl}-methanol] | strong inhibitors | strong inhibitors |  |  |  |  |  |  |  |  | 
OCc1ccc(-c2nn(Cc3ccccc3)c3ccccc23)o1 [YC-1, 3-(5′-hydroxymethyl-2′-furyl)-1-benzylindazole] |  |  | steadily increased with time after application | dose dependent up to 5 μM | S-phase arrest | decreased by YC-1, dose-dependently and time-dependently | increased when the YC-1 dose was doubled | increased dose-dependently | decreased significantly | effectively reduced | effectively reduced
OCc1ccc(-n2cnc3ccccc32)o1 [{5-[1H-benzimidazol-1-yl]-furan-2-yl}-methanol] | strong inhibitors | strong inhibitors |  |  |  |  |  |  |  |  | 
